The subject of one data set is GBM. In words: Clinical outcome of RT+Gefitinib (RTOG 0211, Array 19) versus RT alone (historical, Array 8) patients stratified by AQUA biomarker level.
Data set [1] relates to Newly Diagnosed Glioblastoma (GBM). The note with it: Gefitinib+Radiation vs historical controls; cited from earlier work.
The subject of data set [2] is chronic myelogenous leukemia and gastrointestinal stromal tumors. The conditions noted are these: patients with chronic myelogenous leukemia and gastrointestinal stromal tumors; cited from earlier work.

SMILES strings stand for the structures.

Regarding `COc1cc2ncnc(Nc3ccc(F)c(Cl)c3)c2cc1OCCCN1CCOCC1` [Gefitinib], in the data set with GBM (patients with elevated ratio of cytoplasmic to nuclear pAKT), the “overall survival, RTOG 0211 versus historical controls (RT alone)” value was “improved overall survival”. Also, the “overall survival times, Gefitinib+RT versus RT only” value in the data set with GBM (patients with intermediate-to-high levels of Src expression) was “significantly worse overall survival times”. Moreover, the “clinical outcome, RT+Gefitinib versus RT alone” value in the data set on GBM (patients with lower levels of PTEN expression, p=0.08) is “trend towards improved outcome”. Further, in data set [1], the “survival compared to historical controls” value is reported as “survival was not significantly improved”.

`Cc1ccc(NC(=O)c2ccc(CN3CCN(C)CC3)cc2)cc1Nc1nccc(-c2cccnc2)n1` [STI-571]: in data set [2], the efficacy as therapy entry was “highly effective” and the toxicity as therapy entry is reported as “non-toxic”.

Source of the values: patent US8557527B2 (HistoRx, Inc., priority 2008, dated 2013).
